From ChEMBL document CHEMBL2429771, “Drug discovery for neglected diseases: molecular target-based and phenotypic approaches” (J Med Chem, 2013)
Blank lines part the entries; values can stand above or below the compound they belong to.

Key:
[1] = test system: Trypanosoma brucei; experiment: Inhibition of blood stream form of Trypanosoma brucei overexpressing trypanothione synthase after 72 hrs; assay type: functional, organism-based
[2] = Inhibition of Trypanosoma brucei trypanothione synthase
[3] = test system: Trypanosoma brucei; experiment: Inhibition of blood stream form of trypanothione synthase single knockout Trypanosoma brucei after 72 hrs; assay type: functional, organism-based
[4] = test system: Trypanosoma brucei; experiment: Inhibition of wild type blood stream form of Trypanosoma brucei expressing trypanothione synthase after 72 hrs; assay type: functional, organism-based
[5] = Inhibition of Leishmania mexicana CRK3/CYC6
[6] = biological target: CDK2/Cyclin A2 (Homo sapiens, UniProt P24941); experiment: Inhibition of human CDK2/Cyclin A; assay type: protein-complex assay
[7] = Inhibition of Trypanosoma brucei PTR1 by spectrophotometry; details: read-out: Ki(app)

SMILES: CN(C)CCCNC(=O)Cn1nc(-c2cccc(F)c2)c2ccccc21
- EC50 [1]: 23 µM
- IC50 [2]: 0.045 µM
- EC50 [3]: 1.2 µM
- EC50 [4]: 7 µM

SMILES: Nc1nc2ccc(Cl)cc2[nH]1
- Ki [7]: 11 µM

SMILES: Nc1nc2ccccc2[nH]1
- Ki [7]: 228 µM

The next lines start with the values.

- IC50 [5]: 0.34 µM
- IC50 [6]: > 100 µM
SMILES: O=C(Nc1cc(-c2ccc(Cl)cc2)n[nH]1)C1CCCCC1

- IC50 [5]: < 0.005 µM
- IC50 [6]: > 100 µM
SMILES: Cc1cccc(-c2ccc3nc(NC(=O)CCC4CCCC4)nn3c2)c1

- IC50 [5]: 0.04 µM
- IC50 [6]: > 100 µM
SMILES: COc1cccc(NC(=O)NC2=CC(=O)CC(C)(C)C2)c1
